According to PubChem BioAssay AID1963837 (Molecular Pharmacology Branch, DTP, NCI, 2024):

The molecules below were run on 843126-344-R-J1-PDC complex spheroid viability (assay: Anticancer human tumor 843126-344-R-J1-PDC patient-derived melanoma cell line growth inhibition [POLQ]). Details: curve of first compound; second compound 0.0316 µM.
How it was run: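 PDC + HUVEC + MSC complex spheroids; POLQ inhibitors ± partner drugs; top conc. at/near clinical Cmax, else 10 microM (SN-38 1 microM), half-log dilutions; 37 degrees C, 5% CO2.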
`C=CC(=O)N1CCN(c2nc(=O)n(-c3c(C)ccnc3C(C)C)c3nc(-c4c(O)cccc4F)c(F)cc23)C(C)C1` (stereo unspecified) + Nc1ccc(C#CCN(C(=O)Cc2ncc(C(F)(F)F)cc2C(F)(F)F)c2ccc(F)cc2)nn1 gave an IC50 of over 10 µM.
`CC(C)n1c(=O)n(C)c2cnc3cc(F)c(-c4ccc(OCCCN5CCCCC5)nc4)cc3c21` + Nc1ccc(C#CCN(C(=O)Cc2ncc(C(F)(F)F)cc2C(F)(F)F)c2ccc(F)cc2)nn1 showed an IC50 of over 10 µM.
`CC1COCCN1c1cc(-c2ccnn2C)c2ccnc(-c3ccn[nH]3)c2n1` (stereo unspecified) + Nc1ccc(C#CCN(C(=O)Cc2ncc(C(F)(F)F)cc2C(F)(F)F)c2ccc(F)cc2)nn1 gave an IC50 of 0.943 µM.
`CC1COCCN1c1cc(C2(S(C)(=N)=O)CC2)nc(-c2ccnc3[nH]ccc23)n1` (stereo unspecified) + Nc1ccc(C#CCN(C(=O)Cc2ncc(C(F)(F)F)cc2C(F)(F)F)c2ccc(F)cc2)nn1 gave an IC50 of over 10 µM.
Work on `COc1ccc([C@@H](O)c2cc(-c3ncnc4cc(N5CCOCC5)ccc34)c(F)cc2Cl)nn1` + Nc1ccc(C#CCN(C(=O)Cc2ncc(C(F)(F)F)cc2C(F)(F)F)c2ccc(F)cc2)nn1 yielded an IC50 of over 10 µM.
Molecule `Cn1ncnc1[C@H]1c2n[nH]c(=O)c3cc(F)cc(c23)N[C@@H]1c1ccc(F)cc1` + Nc1ccc(C#CCN(C(=O)Cc2ncc(C(F)(F)F)cc2C(F)(F)F)c2ccc(F)cc2)nn1 has an IC50 of over 0.1 µM.

Same assay, conditions: curve of first compound; second compound 0.1 µM
With `C=CC(=O)N1CCN(c2nc(=O)n(-c3c(C)ccnc3C(C)C)c3nc(-c4c(O)cccc4F)c(F)cc23)C(C)C1` (stereo unspecified) + Nc1ccc(C#CCN(C(=O)Cc2ncc(C(F)(F)F)cc2C(F)(F)F)c2ccc(F)cc2)nn1 the IC50 was over 10 µM.
`CC(C)n1c(=O)n(C)c2cnc3cc(F)c(-c4ccc(OCCCN5CCCCC5)nc4)cc3c21` + Nc1ccc(C#CCN(C(=O)Cc2ncc(C(F)(F)F)cc2C(F)(F)F)c2ccc(F)cc2)nn1 showed an IC50 of over 10 µM.
For `CC1COCCN1c1cc(-c2ccnn2C)c2ccnc(-c3ccn[nH]3)c2n1` (stereo unspecified) + Nc1ccc(C#CCN(C(=O)Cc2ncc(C(F)(F)F)cc2C(F)(F)F)c2ccc(F)cc2)nn1, the IC50 was 1.11 µM.
`CC1COCCN1c1cc(C2(S(C)(=N)=O)CC2)nc(-c2ccnc3[nH]ccc23)n1` (stereo unspecified) + Nc1ccc(C#CCN(C(=O)Cc2ncc(C(F)(F)F)cc2C(F)(F)F)c2ccc(F)cc2)nn1 showed an IC50 of over 10 µM.
Work on `COc1ccc([C@@H](O)c2cc(-c3ncnc4cc(N5CCOCC5)ccc34)c(F)cc2Cl)nn1` + Nc1ccc(C#CCN(C(=O)Cc2ncc(C(F)(F)F)cc2C(F)(F)F)c2ccc(F)cc2)nn1 yielded an IC50 of over 10 µM.
With `Cn1ncnc1[C@H]1c2n[nH]c(=O)c3cc(F)cc(c23)N[C@@H]1c1ccc(F)cc1` + Nc1ccc(C#CCN(C(=O)Cc2ncc(C(F)(F)F)cc2C(F)(F)F)c2ccc(F)cc2)nn1 the IC50 was over 0.1 µM.

Same assay, conditions: curve of first compound; second compound 0.316 µM
Work on `C=CC(=O)N1CCN(c2nc(=O)n(-c3c(C)ccnc3C(C)C)c3nc(-c4c(O)cccc4F)c(F)cc23)C(C)C1` (stereo unspecified) + Nc1ccc(C#CCN(C(=O)Cc2ncc(C(F)(F)F)cc2C(F)(F)F)c2ccc(F)cc2)nn1 yielded an IC50 of over 10 µM.
In the case of `CC(C)n1c(=O)n(C)c2cnc3cc(F)c(-c4ccc(OCCCN5CCCCC5)nc4)cc3c21` + Nc1ccc(C#CCN(C(=O)Cc2ncc(C(F)(F)F)cc2C(F)(F)F)c2ccc(F)cc2)nn1, the IC50 is reported as over 10 µM.
`CC1COCCN1c1cc(-c2ccnn2C)c2ccnc(-c3ccn[nH]3)c2n1` (stereo unspecified) + Nc1ccc(C#CCN(C(=O)Cc2ncc(C(F)(F)F)cc2C(F)(F)F)c2ccc(F)cc2)nn1 showed an IC50 of 0.911 µM.
For `CC1COCCN1c1cc(C2(S(C)(=N)=O)CC2)nc(-c2ccnc3[nH]ccc23)n1` (stereo unspecified) + Nc1ccc(C#CCN(C(=O)Cc2ncc(C(F)(F)F)cc2C(F)(F)F)c2ccc(F)cc2)nn1, the IC50 was 9.88 µM.
`COc1ccc([C@@H](O)c2cc(-c3ncnc4cc(N5CCOCC5)ccc34)c(F)cc2Cl)nn1` + Nc1ccc(C#CCN(C(=O)Cc2ncc(C(F)(F)F)cc2C(F)(F)F)c2ccc(F)cc2)nn1 was tested, and the IC50 was over 10 µM.
For `Cn1ncnc1[C@H]1c2n[nH]c(=O)c3cc(F)cc(c23)N[C@@H]1c1ccc(F)cc1` + Nc1ccc(C#CCN(C(=O)Cc2ncc(C(F)(F)F)cc2C(F)(F)F)c2ccc(F)cc2)nn1, the IC50 was over 0.1 µM.

Same assay, conditions: curve of first compound; second compound 1 µM
Work on `C=CC(=O)N1CCN(c2nc(=O)n(-c3c(C)ccnc3C(C)C)c3nc(-c4c(O)cccc4F)c(F)cc23)C(C)C1` (stereo unspecified) + Nc1ccc(C#CCN(C(=O)Cc2ncc(C(F)(F)F)cc2C(F)(F)F)c2ccc(F)cc2)nn1 yielded an IC50 of over 10 µM.
For `CC(C)n1c(=O)n(C)c2cnc3cc(F)c(-c4ccc(OCCCN5CCCCC5)nc4)cc3c21` + Nc1ccc(C#CCN(C(=O)Cc2ncc(C(F)(F)F)cc2C(F)(F)F)c2ccc(F)cc2)nn1, the IC50 was over 10 µM.
`CC1COCCN1c1cc(-c2ccnn2C)c2ccnc(-c3ccn[nH]3)c2n1` (stereo unspecified) + Nc1ccc(C#CCN(C(=O)Cc2ncc(C(F)(F)F)cc2C(F)(F)F)c2ccc(F)cc2)nn1 showed an IC50 of 0.738 µM.
For `CC1COCCN1c1cc(C2(S(C)(=N)=O)CC2)nc(-c2ccnc3[nH]ccc23)n1` (stereo unspecified) + Nc1ccc(C#CCN(C(=O)Cc2ncc(C(F)(F)F)cc2C(F)(F)F)c2ccc(F)cc2)nn1, the IC50 was over 10 µM.
`COc1ccc([C@@H](O)c2cc(-c3ncnc4cc(N5CCOCC5)ccc34)c(F)cc2Cl)nn1` + Nc1ccc(C#CCN(C(=O)Cc2ncc(C(F)(F)F)cc2C(F)(F)F)c2ccc(F)cc2)nn1 showed an IC50 of over 10 µM.
`Cn1ncnc1[C@H]1c2n[nH]c(=O)c3cc(F)cc(c23)N[C@@H]1c1ccc(F)cc1` + Nc1ccc(C#CCN(C(=O)Cc2ncc(C(F)(F)F)cc2C(F)(F)F)c2ccc(F)cc2)nn1 gave an IC50 of over 0.1 µM.

Same assay, conditions: curve of first compound; second compound 3.16 µM
With `C=CC(=O)N1CCN(c2nc(=O)n(-c3c(C)ccnc3C(C)C)c3nc(-c4c(O)cccc4F)c(F)cc23)C(C)C1` (stereo unspecified) + Nc1ccc(C#CCN(C(=O)Cc2ncc(C(F)(F)F)cc2C(F)(F)F)c2ccc(F)cc2)nn1 the IC50 was over 10 µM.
In the case of `CC(C)n1c(=O)n(C)c2cnc3cc(F)c(-c4ccc(OCCCN5CCCCC5)nc4)cc3c21` + Nc1ccc(C#CCN(C(=O)Cc2ncc(C(F)(F)F)cc2C(F)(F)F)c2ccc(F)cc2)nn1, the IC50 is reported as over 10 µM.
For `CC1COCCN1c1cc(-c2ccnn2C)c2ccnc(-c3ccn[nH]3)c2n1` (stereo unspecified) + Nc1ccc(C#CCN(C(=O)Cc2ncc(C(F)(F)F)cc2C(F)(F)F)c2ccc(F)cc2)nn1, the IC50 was 0.661 µM.
Work on `CC1COCCN1c1cc(C2(S(C)(=N)=O)CC2)nc(-c2ccnc3[nH]ccc23)n1` (stereo unspecified) + Nc1ccc(C#CCN(C(=O)Cc2ncc(C(F)(F)F)cc2C(F)(F)F)c2ccc(F)cc2)nn1 yielded an IC50 of over 10 µM.
`COc1ccc([C@@H](O)c2cc(-c3ncnc4cc(N5CCOCC5)ccc34)c(F)cc2Cl)nn1` + Nc1ccc(C#CCN(C(=O)Cc2ncc(C(F)(F)F)cc2C(F)(F)F)c2ccc(F)cc2)nn1 was tested, and the IC50 was over 10 µM.
For `Cn1ncnc1[C@H]1c2n[nH]c(=O)c3cc(F)cc(c23)N[C@@H]1c1ccc(F)cc1` + Nc1ccc(C#CCN(C(=O)Cc2ncc(C(F)(F)F)cc2C(F)(F)F)c2ccc(F)cc2)nn1, the IC50 was over 0.1 µM.

Same assay, conditions: curve of first compound; second compound 10 µM
Work on `C=CC(=O)N1CCN(c2nc(=O)n(-c3c(C)ccnc3C(C)C)c3nc(-c4c(O)cccc4F)c(F)cc23)C(C)C1` (stereo unspecified) + Nc1ccc(C#CCN(C(=O)Cc2ncc(C(F)(F)F)cc2C(F)(F)F)c2ccc(F)cc2)nn1 yielded an IC50 of over 10 µM.
